Where “and” joins values, the source holds several entries; their conditions need not be identical. Equal values may be shown once. Read-outs that look alike come from different tables or passages of the source.
Key:
[1] = test system: focal cerebral infarcts (MCAo); assay: Infarct volume measurement (H&E), Tamura MCAo model; assay type: in vivo, rat; conditions: day 7
Description: Behavioral assessment as well as infarct volume of compound-treated animals in comparison to control (vehicle) volume animals was used for evaluating compound efficacy over a 7 day period.
Surgical Preparation. Middle Cerebral Artery Occlusion (MCAo), Tamura Model. Focal cerebral infarcts were made by permanent occlusion of the proximal right middle cerebral artery using a modification of the method of Tamura et al. Male Sprague-Dawley rats (300-350 g) were anesthetized with 2% isoflourane in 50% Air/50% O2, and maintained with 1-1.5% isoflourane. The temporalis muscle was bisected and reflected through an incision made midway between the eye and the eardrum canal. The proximal MCA was exposed through a subtemporal craniectomy without removing the zygomatic arch and without transecting the facial nerve. […] Body temperature was maintained at 38° C.±1 throughout the entire procedure. Animals were euthanatized at various time periods after MCA occlusion and the brains are removed for histological analysis.
Morphometric Analysis—Brain Perfusion. Seven days after the induction of focal ischemia, rats were deeply anesthetized with a ketamine, and xylazine cocktail. The animals were then perfused transcardially with normal saline (with heparin 2 unit/ml) followed by 4% paraformaldehyde for infarct volume measurement (H&E staining). Brains were removed and stored in 10% formalin to be sectioned and stained with Hematoxylin and Eosin.
Infarct Volume Measurement. Using the Image Pro-Plus imaging system, a total of 7 images per brain of the posterior side of each slice were analyzed through digital analysis. The total direct infarct volume was calculated for the left hemisphere using the equation below. Digitizing and computation was done under blinded conditions.
The total infarct volumes are calculated for each animal and subsequent group means were determined as volume of area (mm^3). To account for tissue shrinkage and possible edema the indirect method of infarct volume was calculated using the formula: Total Contralateral Hemisphere Volume−Total Infarcted Hemisphere Volume (mm^3)
Experimental Groups and Compound Administration. A total of 80 animals underwent MCAo using subcutaneous administration of all test articles, according to the experimental design illustrated in Table 16. […] The time schedules for administration of all treated groups (10 animals/group) was divided as follows:
All animals were treated with the compound(s)/vehicle(s) as a blinded random investigation. The dose and route of administration is given below in Table 16. Forty animals used in the first group of the study (group a.) Cerebral blood flow measurement was performed according to the protocol previously discussed on days 0, 1 and 5 with respect to MCAo.

[2] = test system: focal cerebral infarcts (MCAo); assay: Forelimb placing test, Tamura MCAo model; assay type: in vivo, rat; conditions: AVG, 0=normal, 10=maximally impaired
Description: Surgical Preparation. Middle Cerebral Artery Occlusion (MCAo), Tamura Model. Focal cerebral infarcts were made by permanent occlusion of the proximal right middle cerebral artery using a modification of the method of Tamura et al. […] The temporalis muscle was bisected and reflected through an incision made midway between the eye and the eardrum canal. The proximal MCA was exposed through a subtemporal craniectomy without removing the zygomatic arch and without transecting the facial nerve. […] Animals were euthanatized at various time periods after MCA occlusion and the brains are removed for histological analysis. Behavioral Analysis. Two behavioral tests were performed, the limb placing and body swing test. […] Limb Placing. The limb placing tests were divided into both forelimb and hindlimb tests. For the forelimb-placing test, the examiner held the rat close to a tabletop and scored the rat's ability to place the forelimb on the tabletop in response to whisker, visual, tactile, or proprioceptive stimulation. Similarly, for the hindlimb placing test, the examiner assessed the rat's ability to place the hindlimb on the tabletop in response to tactile and proprioceptive stimulation. […] Typically, there was a slow and steady recovery of limb placing behavior during the first month after stroke. Experimental Groups and Compound Administration. A total of 80 animals underwent MCAo using subcutaneous administration of all test articles, according to the experimental design illustrated in Table 16. […] All animals were treated with the compound(s)/vehicle(s) as a blinded random investigation. The dose and route of administration is given below in Table 16.

[3] = test system: focal cerebral ischemia; conditions: for Infarct Volume: 1 h post, 24 h post MCAo, mean ± SEM; for Infarct Volume / reduction in infarct volume from control / infarct volume compared with controls (significance): 48 h
Description: Control animals were injected with the vehicle for the test compounds. Survival was maintained for 48 hrs. The cortical infarction sizes were used as endpoints for efficacy evaluation.
Animal Preparation and Middle Cerebral Artery Occlusion. Male, adult, Sprague-Dawley rats (Charles River), weighing 300-400 grams, were used for the study. All animals were acclimated at least for five days before entering the study. Animals were housed in a standard animal facility and fed with commercial rodent chow ad libitum. All animals were anesthetized via intramuscular injection (4 mL/kg) of “cocktail” containing ketamine (25 mg/mL), xylazine (1.3 mg/mL) and acepromazine (0.33 mg/mL). Both carotid arteries were separated with great caution to minimize the vagal nerve stimulation. The right proximal MCA trunk was exposed through a subtemporal craniectomy without transecting the facial nerve. […] Immediately following MCA occlusion, both of the common carotid arteries were occluded for 1 hour using surgical aneurysm micro-clips (ROBOZ INC). Animals were put into temperature regulated recovery chamber for 1 hour before the clips were removed from the common carotid arteries. Body temperature was maintained at 37±0.5° C. during the surgery using a heating blanket connected to a temperature controller.
Compound Administration and Storage. In a blinded random investigation, all animals were injected with the compound(s) or vehicle via S.C. as bolus injection at 2 hours pre, 1 hour post and 24 hours post-MCAo.
Infarct Measurement. Forty-eight hours following MCAo, animals were euthanized with inhalation of CO2. Brains were removed and chilled in ice saline for 10 min. The brains were put in a metal rodent brain slicer. Each rat brain was cut coronally into 7 sections, with each section being 2 mm thick. The brain sections were immersed in 2% TTC solution for 30 min at 37° C. The areas of cerebral infarcts were determined on seven slices, using a computer-interfaced imaging system, Image-Pro® Plus, Version 4.4 for Windows (Media Cybernetics, MD). Infarct areas were then summed among slices and multiplied by slice thickness to give the total infarct volume.
Statistics. All data are expressed as mean±SEM. Infarct volume was analyzed using Student t Test. A p value of ≦0.05 was considered a statistically significant difference. All statistical analyses were performed with the software package JMP version 4.0 (SAS Institute Inc., Cary, N.C.).

[4] = administered six hours after MCAo
[5] = administered six hours after MCAo, listed as A
[6] = administered three hours after MCAo
[7] = administered three hours after MCAo, listed as A
[8] = administered six hours after MCAo, listed as B
[9] = administered three hours after MCAo, listed as B
[10] = administered six hours after MCAo, listed as C
[11] = administered three hours after MCAo, listed as C

Compound	Corrected Infarct Volume, Average [1, 4] [mm^3]	Percent Infarct Volume, Average [1, 4] [%]	Corrected Infarct Volume, Average [1, 6] [mm^3]	Percent Infarct Volume, Average [1, 6] [%]	Forelimb placing test score, D0 [2, 4]	Forelimb placing test score, D1 [2, 4]	Forelimb placing test score, D3 [2, 4]	Forelimb placing test score, D7 [2, 4]	Forelimb placing test score, D0 [2, 6]	Forelimb placing test score, D1 [2, 6]	Forelimb placing test score, D3 [2, 6]	Forelimb placing test score, D7 [2, 6]	Infarct Volume ([3]; 1 mg/kg SC at 2 h pre) [mm^3]	infarct volume compared with controls (significance) ([3]; 1 mg/kg SC)	also measured
CC(C)c1c(C(=O)Nc2ccccc2)c(-c2ccccc2)c(-c2ccc(F)cc2)n1CC(O)C(O)C(O)C(O)CO (stereo not drawn) [Compound 782236]	239.27	26.69	212.59	23.53	0	9.2	8.9	7	0	8.4	6.7	5.9			Corrected Infarct Volume, individual animals [1, 5]: 227.2 mm^3 and 166.6 mm^3 and 234.6 mm^3 and 269.8 mm^3 and 249 mm^3 and 215.8 mm^3 and 229 mm^3 and 213.3 mm^3 and 271.4 mm^3 and 316 mm^3; Percent Infarct Volume, individual animals [1, 5]: 25.6% and 31.5% and 24.6% and 28.8% and 28.1% and 28.9% and 24.8% and 23.5% and 25.3% and 25.8%; Corrected Infarct Volume, individual animals [1, 7]: 210.9 mm^3 and 272.5 mm^3 and 275.6 mm^3 and 163.8 mm^3 and 249 mm^3 and 229.2 mm^3 and 127.9 mm^3 and 222.3 mm^3 and 235 mm^3 and 139.8 mm^3; Percent Infarct Volume, individual animals [1, 7]: 25.1% and 29% and 23.7% and 15.8% and 28.1% and 25.9% and 15.9% and 27.5% and 25.4% and 18.9%; Infarct Volume ([3]; 1 mg/kg SC at 2 h pre, listed as A): 71.32±36.98 mm^3; reduction in infarct volume from control ([3]; 1 mg/kg SC): 53%; animals died within the 24-hour period after the second injection ([3]; 10 mg/kg SC): Three; mortality rate ([3]; 10 mg/kg SC): 60%
CC(C)c1[nH]c(-c2ccc(F)cc2)c(-c2ccccc2)c1C(=O)Nc1ccccc1 [Compound 781430]	283.4	26.92	213.77	22.29	0	8.9	8.5	6	0	8.9	7.6	4.3	152.83 ± 13.78	not significantly different from controls	Corrected Infarct Volume, individual animals [1, 8]: 375.7 mm^3 and 204.5 mm^3 and 353.2 mm^3 and 262.2 mm^3 and 196.6 mm^3 and 352.4 mm^3 and 289.9 mm^3 and 195.4 mm^3 and 327.7 mm^3 and 276.5 mm^3; Percent Infarct Volume, individual animals [1, 8]: 31.4% and 21.7% and 26.2% and 33.9% and 15.6% and 29.1% and 28.8% and 25.4% and 35.3% and 21.8%; Corrected Infarct Volume, individual animals [1, 9]: 200.1 mm^3 and 231.7 mm^3 and 217.7 mm^3 and 173 mm^3 and 180.5 mm^3 and 224.1 mm^3 and 208.1 mm^3 and 233.4 mm^3 and 255.3 mm^3; Percent Infarct Volume, individual animals [1, 9]: 19.74% and 21.5679% and 24.3% and 20.62% and 19.71% and 23.99% and 22.56% and 24.24% and 23.9%; Infarct Volume ([3]; 10 mg/kg SC at 2 h pre, listed as B): 65.99±25.01 mm^3; reduction in infarct volume from control ([3]; 10 mg/kg SC): 57%
CC(C)c1c(C(=O)Nc2ccccc2)c(-c2ccccc2)c(-c2ccc(F)cc2)n1CC[C@@H](O)C[C@@H](O)CC(=O)O [atorvastatin, reference compound]	271.2	24.56	207.96	21	0	8.8	8.8	8	0	9.2	7.3	5.6	158.06 ± 32.83	not significantly different from controls	Corrected Infarct Volume, individual animals [1, 10]: 138.8 mm^3 and 267.1 mm^3 and 232.3 mm^3 and 333 mm^3 and 214.3 mm^3 and 291.6 mm^3 and 338.3 mm^3 and 354.3 mm^3; Percent Infarct Volume, individual animals [1, 10]: 12.7% and 21.6% and 24.2% and 31% and 25.4% and 29.4% and 25.7% and 26.6%; Corrected Infarct Volume, individual animals [1, 11]: 208 mm^3 and 303.3 mm^3 and 262.3 mm^3 and 184.8 mm^3 and 243.8 mm^3 and 124 mm^3 and 162.8 mm^3 and 164.5 mm^3 and 218.2 mm^3; Percent Infarct Volume, individual animals [1, 11]: 18.35% and 28.2% and 31% and 16.2101% and 25.43% and 12.82% and 17.39% and 16.81% and 22.81%; Infarct Volume ([3]; 10 mg/kg SC at 2 h pre): 124.71 ± 17.31 mm^3; infarct volume compared with controls (significance) ([3]; 10 mg/kg SC): not significantly different from controls
